SMILES strings stand for the structures. Where two headings read alike, the source gives them in different places. Bounds are passed on as bounds.

This data set can be described thus: In vitro (pH stability) assay: intramolecular cyclization-release of capsaicin from the prodrug in buffer. The format is physicochemical. The note with it: for stability at pH 4.5 at room temperature in comparison to the non-acylated prodrug (compound 6): pH 4.5, RT. As to the method:
The compounds described herein are examples of pH activated prodrugs whereby upon exposure to a specific pH, the half-life of the intramolecular cyclization-release reaction is determined. The intramolecular cyclization-release reaction results in the concomitant formation of a cyclic urea with the release of the parent drug.
Compounds were incubated in the buffer/biological media indicated. The reactions were conducted at either room temperature or 37° C. In some embodiments, additional common ingredients/formulations which may be used in buffers for the testing of the cyclization-release of the compounds described herein include but are not limited to: N-(2-Acetamido)-2-aminoethanesulfonic acid, N-(2-Acetamido)iminodiacetic acid, 2-Amino-2-methyl-1,3-propanediol, salts of bicarbonate, N,N-Bis(2-hydroxyethyl)glycine, 2-Bis(2-hydroxyethyl)amino-2-(hydroxymethyl)-1,3-propanediol, 3-(Cyclohexylamino)-1-propanesulfonic acid, 2-(Cyclohexylamino)ethanesulfonic acid, salts of carbonate, salts of citrate, 4-(2-Hydroxyethyl)-1-piperazinepropanesulfonic acid, salts of glycine, salts of Glycyl-glycine, 4-(2-Hydroxyethyl)piperazine-1-ethanesulfonic acid, 4-Morpholineethanesulfonic acid, 4-Morpholinepropanesulfonic acid, 1,4-Piperazinediethanesulfonic acid, salts of phosphate, salts of tartrate, 2-[(2-Hydroxy-1,1-bis(hydroxymethyl)ethyl)amino]ethanesulfonic acid, Tris(2-hydroxyethyl)amine, and salts of EDTA.
Samples were collected at specific time points, quenched with a 1.0% TFA in acetonitrile solution to stop the cyclization-release reaction and analyzed by HPLC for formation of released capsaicin, cyclic urea by-product, and consumption of starting compound in plasma and cerebrospinal fluid (CSF).

Setting [1] is: buffer (simulated physiological conditions), simulated physiological conditions, pH 7.4 & 37° C., read-out: half-life of conversion to capsaicin.
Where [2] appears, read: pH = 4.5 (0.1M aqueous sodium acetate buffer), RT, read-out: Intramolecular Cyclization-Release Half-life (T1/2) at pH 4.5 & RT (converted).
[3] abbreviates: pH = 7.4 (0.2M aqueous tris buffer), 37° C., read-out: Intramolecular Cyclization-Release Half-life (T1/2) at pH 7.4 & 37° C.

`CNCC1CN(C)CCN1C(=O)Oc1ccc(CNC(=O)CCCC/C=C/C(C)C)cc1OC` (stereo not drawn) [Compound 6, (E)-2-methoxy-4-((8-methylnon-6-enamido)methyl)phenyl 4-methyl-2-((methylamino)methyl)piperazine-1-carboxylate]: the half-life was under 5 min under setting [1], 78 min under setting [2] and about 0.8 min under setting [3].
With `CNCC1CN(C(=O)CCOCCOCCOCCOC)CCN1C(=O)Oc1ccc(CNC(=O)CCCC/C=C/C(C)C)cc1OC` (stereo not drawn) [Compound 1, (E)-2-methoxy-4-((8-methylnon-6-enamido)methyl)phenyl 2-((methylamino)methyl)-4-(2,5,8,11-tetraoxatetradecan-14-oyl)piperazine-1-carboxylate], the “stability at pH 4.5 at room temperature in comparison to the non-acylated prodrug (compound 6)” value was “significant and unexpected increase in stability”. The half-life under setting [1] is under 5 min. For the same compound, the half-life under setting [2] was 2600 min. Also, under setting [3], the half-life is about 0.8 min.
As to `CNCC1CNCCN1C(=O)Oc1ccc(CNC(=O)CCCC/C=C/C(C)C)cc1OC` (stereo not drawn) [Compound 5], the half-life is under 5 min under setting [1] and about 0.4 min under setting [3].
Take `CNCC1CN(C(C)=O)CCN1C(=O)Oc1ccc(CNC(=O)CCCC/C=C/C(C)C)cc1OC` (stereo not drawn) [Compound 7, (E)-2-methoxy-4-((8-methylnon-6-enamido)methyl)phenyl 4-acetyl-2-((methylamino)methyl)piperazine-1-carboxylate]: the “stability at pH 4.5 at room temperature in comparison to the non-acylated prodrug (compound 6)” value is “significant and unexpected increase in stability”. The half-life under setting [1] is under 5 min. The half-life under setting [2] is 6930 min. Also, the half-life under setting [3] was about 0.9 min.
`CNCC1CN(C(=O)CCOCCOCCOCCOCCOCCOCCOCCOCCOCCOCCOCCOCCOC)CCN1C(=O)Oc1ccc(CNC(=O)CCCC/C=C/C(C)C)cc1OC` (stereo not drawn) [Compound 4, (E)-2-methoxy-4-((8-methylnon-6-enamido)methyl)phenyl 4-(2,5,8,11,14,17,20,23,26,29,32,35,38-tridecaoxahentetracontan-41-oyl)-2-((methylamino)methyl)piperazine-1-carboxylate]: the half-life runs as follows: under setting [1], under 5 min; under setting [3], about 0.6 min.
`CCOC(=O)N1CCN(C(=O)Oc2ccc(CNC(=O)CCCC/C=C/C(C)C)cc2OC)C(CNC)C1` (stereo not drawn) [Compound 8, (E)-4-ethyll-(2-methoxy-4-((8-methylnon-6-enamido)methyl)phenyl) 2-((methylamino)methyl)piperazine-1,4-dicarboxylate]: the “stability at pH 4.5 at room temperature in comparison to the non-acylated prodrug (compound 6)” value was “significant and unexpected increase in stability”. In addition, the half-life under setting [1] is under 5 min. The half-life under setting [2] is 2770 min. Besides, under setting [3], the half-life is about 1.3 min.
As for `CNCC1CN(C(=O)CCOCCOCCOCCOCCOCCOCCOC)CCN1C(=O)Oc1ccc(CNC(=O)CCCC/C=C/C(C)C)cc1OC` (stereo not drawn) [Compound 2, (E)-2-methoxy-4-((8-methylnon-6-enamido)methyl)phenyl 2-((methylamino)methyl)-4-(2,5,8,11,14,17,20-heptaoxatricosan-23-oyl)piperazine-1-carboxylate], the “stability at pH 4.5 at room temperature in comparison to the non-acylated prodrug (compound 6)” value was “significant and unexpected increase in stability”. Also, the half-life under setting [1] was under 5 min. The half-life under setting [2] was 2450 min. In addition, the half-life under setting [3] was about 0.7 min.
Take `CNCC1CN(C(=O)CCOCCOCCOCCOCCOCCOCCOCCOCCOCCOC)CCN1C(=O)Oc1ccc(CNC(=O)CCCC/C=C/C(C)C)cc1OC` (stereo not drawn) [Compound 3, (E)-2-methoxy-4-((8-methylnon-6-enamido)methyl)phenyl 4-(2,5,8,11,14,17,20,23,26,29-decaoxadotriacontan-32-oyl)-2-((methylamino)methyl)piperazine-1-carboxylate]: the “stability at pH 4.5 at room temperature in comparison to the non-acylated prodrug (compound 6)” value was “significant and unexpected increase in stability”. Under setting [1], the half-life is under 5 min. Under setting [2], the half-life was 3060 min. Besides, the half-life under setting [3] was about 0.8 min.

The values above are taken from patent publication US20220112165A1, “PEGYLATED PRODRUGS OF PHENOLIC TRPV1 AGONISTS” (priority 2018, published 2022).
